pIC50: −log10 of the molar value.

The target in the assay is CK2A1 (CK2α/β) (Homo sapiens, UniProt P68400). As to the kind of experiment: CK2 kinase assay, CK2A1 (CK2α/β). It is filed as biochemical. The note with it: Table A; read-out: CK2A1 (CK2α/β) (IC50).
Sequence of CK2A1 (CK2α/β) (P68400 whole entry, species assumed): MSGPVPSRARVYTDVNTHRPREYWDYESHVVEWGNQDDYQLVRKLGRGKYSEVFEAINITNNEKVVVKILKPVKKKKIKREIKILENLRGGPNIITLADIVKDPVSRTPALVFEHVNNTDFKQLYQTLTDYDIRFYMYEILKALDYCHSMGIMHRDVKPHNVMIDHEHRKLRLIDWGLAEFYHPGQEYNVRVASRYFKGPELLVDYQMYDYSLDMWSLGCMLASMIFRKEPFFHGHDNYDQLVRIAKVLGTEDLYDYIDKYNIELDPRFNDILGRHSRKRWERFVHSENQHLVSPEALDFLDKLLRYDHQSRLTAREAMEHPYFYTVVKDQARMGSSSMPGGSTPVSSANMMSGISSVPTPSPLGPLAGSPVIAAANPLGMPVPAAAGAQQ
Sequence of CK2A1 (CK2α/β) (P67870 whole entry partner, species assumed): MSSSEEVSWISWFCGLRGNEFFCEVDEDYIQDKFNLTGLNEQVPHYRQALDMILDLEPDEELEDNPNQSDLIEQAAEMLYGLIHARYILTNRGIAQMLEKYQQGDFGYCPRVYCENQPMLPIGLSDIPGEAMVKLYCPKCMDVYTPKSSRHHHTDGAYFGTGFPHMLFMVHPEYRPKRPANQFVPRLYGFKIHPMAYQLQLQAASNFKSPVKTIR
For `COC(=O)N[C@H]1CCN(c2cc(C#N)cc(Nc3nc(NC4CC4)c4ncc(C#N)n4n3)c2Cl)C[C@H]1NC(C)C` [Example 756, methyl N-[(3R,4S)-1-(2-chloro-5-cyano-3-{[7-cyano-4-(cyclopropylamino)imidazo [2,1-f][1,2,4]triazin-2-yl]amino}phenyl)-3-[(propan-2-yl)amino]piperidin-4-yl]carbamate], the pIC50 is 8.35.
To `CCNc1nc(Nc2cc(C#N)cc(N3CC[C@@H](NC(=O)OC)[C@H](N[C@H](C)C(N)=O)C3)c2Cl)nn2c(C#N)cnc12` [Example 758, methl N-[(3R,4R)-3-{[(1S)-1-carbamoylethyl]amino}-1-(2-chloro-5-cyano-3-{[7-cyano-4-(ethylamino)imidazo[2,1-f][1,2,4]triazin-2-yl]amino}phenyl)piperidin-4-yl]carbamate] belongs 8.85; to `CCNc1nc(Nc2cc(C#N)cc(N3CC[C@@H](NC(=O)OC)[C@@H](NCC(O)C(F)(F)F)C3)c2Cl)nn2c(C#N)cnc12` (stereo partly drawn) [Example 761, methyl N-[(3S,4R)-1-(2-chloro-5-cyano-3-{[7-cyano-4-(ethylamino)imidazo[2,1-f][1,2,4]triazin-2-yl]amino}phenyl)-3-[(3,3,3-trifluoro-2-hydroxypropyl)amino]piperidin-4-yl]carbamate], 8.00.
As for `COC(=O)N[C@H]1CCN(c2cc(C#N)cc(Nc3nc(NC4CC4)c4ncc(C#N)n4n3)c2Cl)CC1N(C)C1COC1` (stereo partly drawn) [Example 763, methyl N-[(4S)-1-(2-chloro-5-cyano-3-{[7-cyano-4-(cyclopropylamino)imidazo [2,1-f][1,2,4]triazin-2-yl]amino}phenyl)-3-[methyl(oxetan-3-yl)amino]piperidin-4-yl]carbamate], the pIC50 was 8.87.
Next, `COC(=O)N[C@H]1CCN(c2cc(C#N)cc(Nc3nc(NC4CC4)c4ncc(C#N)n4n3)c2Cl)C[C@@H]1N(C)CC(C)(C)O` [Example 765, methyl N-[(3S,4S)-1-(2-chloro-5-cyano-3-{[7-cyano-4-(cyclopropylamino)imidazo [2,1-f][1,2,4]triazin-2-yl]amino}phenyl)-3-[(2-hydroxy-2-methylpropyl)(methyl)amino]piperidin-4-yl] carbamate]: 7.63.
To `COC(=O)N[C@H]1CCN(c2cc(C#N)cc(Nc3nc(NC4CC4)c4ncc(C#N)n4n3)c2Cl)C[C@H]1N(C)CC#N` [Example 766, methyl N-[(3R,4S)-1-(2-chloro-5-cyano-3-{[7-cyano-4-(cyclopropylamino)imidazo [2,1-f][1,2,4]triazin-2-yl]amino}phenyl)-3-[(cyanomethyl)(methyl)amino]piperidin-4-yl]carbamate] belongs 8.22; to `CCNc1nc(Nc2cc(C#N)cc(N3CC[C@@H](NC(=O)OC)[C@H](N(C)[C@@H](C)C(N)=O)C3)c2Cl)nn2c(C#N)cnc12` [Example 768, methyl N-[(3R,4R)-3-{[(1S)-1-carbamoylethyl](methyl)amino}-1-(2-chloro-5-cyano-3-{[7-cyano-4-(ethylamino)imidazo[2,1-f] [1,2,4]triazin-2-yl]amino}phenyl)piperidin-4-yl] carbamate], 8.40.
To `CCNc1nc(Nc2cc(C#N)cc(N3CC[C@@H](NC(=O)OC)[C@H](N(C)CC(C)(C)O)C3)c2Cl)nn2c(C#N)cnc12` [Example 770, methyl N-[(3R,4R)-1-(2-chloro-5-cyano-3-{[7-cyano-4-(ethylamino)imidazo[2,1-f][1,2,4]triazin-2-yl]amino}phenyl)-3-[(2-hydroxy-2-methylpropyl)(methyl)amino]piperidin-4-yl] carbamate] belongs 8.05; to `CCNc1nc(Nc2cc(C#N)cc(N3CC[C@@H](NC(=O)OC)[C@@H](N(C)CC(C)(C)O)C3)c2Cl)nn2c(C#N)cnc12` [Example 771, methyl N-[(3S,4R)-1-(2-chloro-5-cyano-3-{[7-cyano-4-(ethylamino)imidazo[2,1-f][1,2,4]triazin-2-yl]amino}phenyl)-3-[(2-hydroxy-2-methylpropyl)(methyl)amino]piperidin-4-yl] carbamate], 8.15.
Regarding `CCNc1nc(Nc2cc(C#N)cc(N3CC[C@@H](NC(=O)OC)C(N(C)C[C@H](O)CO)C3)c2Cl)nn2c(C#N)cnc12` (stereo partly drawn) [Example 772, methyl N-[(4R)-1-(2-chloro-5-cyano-3-{[7-cyano-4-(ethylamino)imidazo[2,1-f][1,2,4]triazin-2-yl]amino}phenyl)-3-{[(2S)-2,3-dihydroxypropyl](methyl)amino}piperidin-4-yl]carbamate], the pIC50 was 7.85.
Take `CCNc1nc(Nc2cc(C#N)cc(N3C[C@@H]4C[C@H]3CN4C)c2Cl)nn2c(C#N)cnc12` [Example 773, 2-((2-chloro-5-cyano-3-((1S,4S)-5-methyl-2,5-diazabicyclo[2.2.1]heptan-2-yl)phenyl)amino)-4-(ethylamino)imidazo[2,1-f][1,2,4]triazine-7-carbonitrile]: the pIC50 was 9.19.
Take `N#Cc1cc(Nc2nc(NC3CC3)c3ncc(C#N)n3n2)c(Cl)c(N2C[C@@H]3CCCN(C4COC4)[C@@H]3C2)c1` [Example 778, 2-((2-chloro-5-cyano-3-((4aS,7aS)-1-(oxetan-3-yl)hexahydro-1H-pyrrolo[3,4-b]pyridin-6(2H)-yl)phenyl)amino)-4-(cyclopropylamino)imidazo[2,1-f][1,2,4]triazine-7-carbonitrile]: the pIC50 was 8.96.
As to `CN1CC2(CCN(c3cc(C#N)cc(Nc4nc(NC5CC5)c5ncc(C#N)n5n4)c3Cl)CC2)OC1=O` [Example 780, 2-((2-chloro-5-cyano-3-(3-methyl-2-oxo-1-oxa-3,8-diazaspiro[4.5]decan-8-yl)phenyl)amino)-4-(cyclopropylamino)imidazo[2,1-f][1,2,4]triazine-7-carbonitrile], the pIC50 is 9.17.
To `CC(=O)N1CCC2(CCN(c3cc(C#N)cc(Nc4nc(NC5CC5)c5ncc(C#N)n5n4)c3Cl)CC2)C1` [Example 786, 2-((3-(2-acetyl-2,8-diazaspiro[4.5]decan-8-yl)-2-chloro-5-cyanophenyl)amino)-4-(cyclopropylamino)imidazo[2,1-f][1,2,4]triazine-7-carbonitrile] belongs 8.85; to `CCNc1nc(Nc2cc(C#N)cc(N3CCC4(CCN(C(C)=O)C4)CC3)c2Cl)nn2c(C#N)cnc12` [Example 787, 2-((3-(2-acetyl-2,8-diazaspiro[4.5]decan-8-yl)-2-chloro-5-cyanophenyl)amino)-4-(ethylamino)imidazo[2,1-f][1,2,4]triazine-7-carbonitrile], 8.78.
To `CC(=O)NN1CCN(c2cc(C#N)cc(Nc3nc(NC4CC4)c4ncc(C#N)n4n3)c2Cl)CC1` [Example 789, N-(4-(2-chloro-5-cyano-3-((7-cyano-4-(cyclopropylamino)imidazo[2,1-f][1,2,4]triazin-2-yl)amino)phenyl)piperazin-1-yl)acetamide] belongs 9.21; to `COC(=O)NN1CCN(c2cc(C#N)cc(Nc3nc(NC4CC4)c4ncc(C#N)n4n3)c2Cl)CC1` [Example 790, methyl (4-(2-chloro-5-cyano-3-((7-cyano-4-(cyclopropylamino)imidazo[2,1-f][1,2,4]triazin-2-yl)amino)phenyl)piperazin-1-yl)carbamate], 8.82.
Next, `N#Cc1cc(Nc2nc(NC3CC3)c3ncc(C#N)n3n2)c(Cl)c(N2CCN(NCC(N)=O)CC2)c1` [Example 791, 2-((4-(2-chloro-5-cyano-3-((7-cyano-4-(cyclopropylamino)imidazo[2,1-f][1,2,4]triazin-2-yl)amino)phenyl)piperazin-1-yl)amino)acetamide]: 8.82.
For `N#Cc1cc(Nc2nc(NC3CC3)c3ncc(C#N)n3n2)c(Cl)c(N2CCC3(CC2)CNC3)c1` [Example 792, 2-((2-chloro-5-cyano-3-(2,7-diazaspiro[3.5]nonan-7-yl)phenyl)amino)-4-(cyclopropylamino)imidazo[2,1-f][1,2,4]triazine-7-carbonitrile], the pIC50 is 8.99.
Next, `CC(=O)N1CC2(CCN(c3cc(C#N)cc(Nc4nc(NC5CC5)c5ncc(C#N)n5n4)c3Cl)CC2)C1` [Example 793, 2-((3-(2-acetyl-2,7-diazaspiro[3.5]nonan-7-yl)-2-chloro-5-cyanophenyl)amino)-4-(cyclopropylamino)imidazo[2,1-f][1,2,4]triazine-7-carbonitrile]: 9.09; `C[C@@H](O)C(=O)N1CC2(CCN(c3cc(C#N)cc(Nc4nc(NC5CC5)c5ncc(C#N)n5n4)c3Cl)CC2)C1` [Example 794, (R)-2-((2-chloro-5-cyano-3-(2-(2-hydroxypropanoyl)-2,7-diazaspiro[3.5]nonan-7-yl)phenyl)amino)-4-(cyclopropylamino)imidazo[2,1-f][1,2,4]triazine-7-carbonitrile]: 8.85; `C[C@H](O)C(=O)N1CC2(CCN(c3cc(C#N)cc(Nc4nc(NC5CC5)c5ncc(C#N)n5n4)c3Cl)CC2)C1` [Example 795, (S)-2-((2-chloro-5-cyano-3-(2-(2-hydroxypropanoyl)-2,7-diazaspiro[3.5]nonan-7-yl)phenyl)amino)-4-(cyclopropylamino)imidazo[2,1-f][1,2,4]triazine-7-carbonitrile]: 8.95.
`CN1CC2(CCN(c3cc(C#N)cc(Nc4nc(NC5CC5)c5ncc(C#N)n5n4)c3Cl)CC2)C1` [Example 798, 2-((2-chloro-5-cyano-3-(2-methyl-2,7-diazaspiro[3.5]nonan-7-yl)phenyl)amino)-4-(cyclopropylamino)imidazo[2,1-f][1,2,4]triazine-7-carbonitrile]: the pIC50 is 8.74.
`CNC(=O)CN1CC2(CCN(c3cc(C#N)cc(Nc4nc(NC5CC5)c5ncc(C#N)n5n4)c3Cl)CC2)C1` [Example 799, 2-(7-(2-chloro-5-cyano-3-((7-cyano-4-(cyclopropylamino)imidazo[2,1-f][1,2,4]triazin-2-yl)amino)phenyl)-2,7-diazaspiro[3.5]nonan-2-yl)-N-methylacetamide]: the pIC50 is 8.61.
To `N#Cc1cc(Nc2nc(NC3CC3)c3ncc(C#N)n3n2)c(Cl)c(N2CCC3(CC2)CN(CC(N)=O)C3)c1` [Example 800, 2-(7-(2-chloro-5-cyano-3-((7-cyano-4-(cyclopropylamino)imidazo[2,1-f][1,2,4]triazin-2-yl)amino)phenyl)-2,7-diazaspiro[3.5]nonan-2-yl)acetamide] belongs 8.67.

(Values after patent US9273057B2 (Bristol-Myers Squibb Company, priority 2012, dated 2016).)
